Source: article PMC5907308, “21st Brazilian Diabetes Society Congress” (Diabetology & Metabolic Syndrome, 2018)

Experiments:
[1] = system: patients with type 2 diabetes; assay: Acute NEFA lowering with acipimox: 3 h OGTT and isoglycaemic IV glucose; type: in vivo, human
Protocol: Both tests were repeated after ACP ingestion (200 mg 2 h before and 1 h after starting glucose). C-peptide deconvolution was used to calculate IS rates; mathematical model to quantitate ß-cell function and IE. Main parameters: insulin secretion rate (ISR); glucose sensitivity (ßGS), i.e., the slope of the IS/glucose dose–response curve; glucose-induced potentiation (PGLU), a time-dependent modulation of the dose–response; incretin-induced potentiation (PINCR) calculated as the fold IS increment during OGTT compared to IV glucose.

obese patients = system: obese patients
Text: Alpha-linolenic acid supplementation effects on endoplasmic reticulum stress in visceral adipose tissue from morbid obese patients. 2017. Tese (Doutorado)—Faculdade de Medicina de Ribeirão Preto, Universidade de São Paulo, Ribeirão Preto, 2017. Currently, obesity is considered a worldwide epidemic. It is associated with chronic inflammation and stress activation of the endoplasmic reticulum (ERE), related to the pathogenesis of various diseases such as type 2 diabetes mellitus, cardiovascular diseases, cancer, hypertension, among others. In this context, studies are needed to find alternatives that improve the inflammatory process. […] The objective of our study was to evaluate the effects of alpha-linolenic acid (ALA) supplementation on the metabolism and stress of the endoplasmic reticulum in obese patients. A prospective, randomized, placebo-controlled, double-blind study was conducted. In total, 52 patients were randomized to supplementation with 3 g/day of ALA or placebo, 27 individuals from the omega-3/ALA group and 25 from the control group. Lipid, glycidic and inflammatory profile were evaluated before and after supplementation. Visceral adipose tissue (TAV) was collected during bariatric surgery after supplementation. The fatty acid profile incorporated in the TAV was evaluated by gas chromatography. Genes were evaluated by real-time PCR.

male Wistar rats = type: in vivo, rat
Text: Background: Glucocorticoids (GCs) are a group of drugs with immunosuppressive and antiinflammatory action, its mechanism of action is related to the suppressing the release of proinflammatory cytokines. In addition, GCs may interfere with carbohydrate metabolism, by antagonizing various peripheral actions of insulin, and from this action, trigger changes in the biochemical profile, mainly regarding the lipid representation. The present study aimed to evaluate the dose–response influence of prednisone in the biochemical profile of rats. […] The treatment was daily with a duration of 21 days, with fasting glycemic measures being evaluated in the first (zero) and last day (21). Then the rats were anesthetized and killed by decapitation, in order to collect the whole blood for serum biochemical analysis by spectrophotometry. All data were statistically evaluated with significance of 5%.

[2] = system: NGT subjects and T2D patients; assay: Hyperglycaemic clamp with somatostatin, without and with insulin infusion: renal glucose excretion; type: in vivo, human
Protocol: Then, a constant insulin infusion (1 mU min^−1 kg^−1) was started and maintained for additional 3 h (INS period) while clamping glycaemia at CT levels with the use of an ad hoc algorithm. Urines were collected separately for the two study periods for the measurement of glucose and creatinine.

[3] = system: people with T2D and CKD stages 3-4; assay: AWARD-7 phase 3 study, 26 weeks, both arms combined with insulin lispro; type: in vivo, human
[4] = system: subjects with type 1 diabetes; assay: onset 1, 26-week phase 3 trial, post hoc analysis by dose adjustment method; type: in vivo, human; conditions: before treatment
[5] = arms DU 1.5 mg and insulin glargine
[6] = subjects continuing carbohydrate counting (CC)
[7] = subjects using a simple bolus algorithm (BA)

Cc1cnc(C(=O)O)c[n+]1[O-] [ACP, acipimox]
decrease of NEFA OGTT-area-under-curve (AUC) ([1]; ACP 200 mg 2 h before and 1 h after starting glucose, n = 13, mean ± SD): 55 ± 14%
glucose sensitivity (ßGS) ([1]; after ACP, control 26 ± 9, p = ns): 32 ± 11 pmol min^−1 m^−2 mM^−1
insulin secretion rate (ISR), isoglycaemic IV glucose ([1]; after ACP, control 58 ± 19): 53 ± 15 nmol m^−2
insulin secretion rate (ISR), OGTT ([1]; after ACP, control 70 ± 23): 64 ± 20 nmol m^−2
oral glucose sensitivity index, OGIS ([1]; after ACP, control 291 ± 60): 326 ± 44 ml min^−1 m^−2
incretin-induced potentiation (PINCR) ([1]; in vivo): 1.17 ± 0.14 fold

CC/C=C\C/C=C\C/C=C\CCCCCCCC(=O)O [ALA, alpha-linolenic acid]
serum levels of IL-6, TNF-α and CRP (obese patients; after supplementation): no change
serum Leptin levels (obese patients; after supplementation, P = 0.0154): decrease
serum IL-4 (obese patients; after supplementation, p = 0.0211): increase
serum IP-10 (obese patients; after supplementation, p = 0.0410): decrease
incorporation of ALA, EPA and DHA into visceral adipose tissue (TAV) (obese patients; gas chromatography): Significant incorporation
gene expression of XBP1, sXBP1, EIF2-α, GADD34 and CCT4 chaperone in TAV (obese patients; real-time PCR): increase
gene expression of leptin and ATF-6 in TAV (obese patients; real-time PCR): decrease

C[C@]12C=CC(=O)C=C1CC[C@@H]1[C@@H]2C(=O)C[C@@]2(C)[C@H]1CC[C@]2(O)C(=O)CO [PRED, prednisone]
alanine aminotransferase (ALT) (male Wistar rats; 1.25 mg/kg, control 68.6 ± 24.8): 79.0 ± 25.1 U/L
triglycerides (male Wistar rats; 5.0 mg/kg, 21 days, CONT 144.1 ± 39.6): 76.0 ± 36.2 mg/dL
VLDL (male Wistar rats; 5.0 mg/kg, CONT 22.8 ± 7.9): 15.2 ± 7.2 mg/dL
HDL (male Wistar rats; 5.0 mg/kg, CONT 53.0 ± 7.7): 23.8 ± 4.2 mg/dL

INS: constant insulin infusion (1 mU min^−1 kg^−1)
exogenous glucose infusion rate (GIR) ([2]; INS period (insulin 1 mU min^−1 kg^−1, 3 h), NGT, CT period 36 ± 16): 157 ± 46 µmol kg MM^−1 min^−1
fractional glucose excretion (FEG) ([2]; INS period, NGT, CT period 20 ± 5): 24 ± 3%
urinary glucose excretion (UGE), median [IQR] ([2]; INS period, NGT, CT period 690 [180]): 770 [320] µmol min^−1
fractional glucose excretion (FEG) ([2]; INS period, T2D, CT period 17 ± 6): 17 ± 7%
exogenous glucose infusion rate (GIR) ([2]; INS period, T2D, CT period 26 ± 12): 71 ± 47 µmol kg MM^−1 min^−1
urinary glucose excretion (UGE), median [IQR] ([2]; INS period, T2D, CT period 490[280]): 530[310] µmol min^−1

dulaglutide
Nausea ([3]; arm DU 0.75 mg): 11.1%
diarrhea ([3]; arm DU 0.75 mg): 13.7%
vomiting ([3]; arm DU 0.75 mg): 5.8%
hypoglycemia rate (≤ 70 mg/dL) ([3]; arm DU 0.75 mg once weekly): 7.8 events/participant/year
Nausea [3, 5]: 19.8%
diarrhea [3, 5]: 15.6%
vomiting [3, 5]: 12.0%
hypoglycemia rate (≤ 70 mg/dL) ([3]; arms DU 1.5 mg once weekly and titrated daily insulin glargine): 5.5 events/participant/year

fast-acting insulin aspart [faster aspart]
HbA1c at baseline [4, 6]: 7.6%
HbA1c at baseline [4, 7]: 7.5%

insulin aspart [IAsp]
HbA1c at baseline [4, 6]: 7.6%
HbA1c at baseline [4, 7]: 7.6%
